This experiment deals with TNFa-induced NF-kB reporter cells, inhibition. As to the kind of experiment: TNFa-triggered NF-kB activation inhibitors, SAR follow-up, cell-based, set 3 (AID 2801).

For the compound `CCCCn1c(SCC(=O)Nc2nnc(CC)s2)nc2c1c(=O)n(C)c(=O)n2C`, the IC50 (as a rule, the point on the concentration scale where inhibition reaches its midpoint) was 13 µM.

The values are drawn from PubChem BioAssay AID2801 (Sanford-Burnham Center for Chemical Genomics, 2010).
